Counter-ions that a name gives are not always drawn. Like-named read-outs stand apart in the source and are kept apart here. Marks after values point to notes of the source that are not given here.
What was measured:
[1] = biological target: dopamine transporter (DAT) (Homo sapiens, UniProt Q01959); assay: Radioreceptor assay, inhibition of (3H)WIN 35,428 binding to the dopamine transporter
Source text: Dysfunction of dopamine neurons has been implicated in several neuropsychiatric diseases. Imaging of the dopamine neurons offers important clinical information relevant to diagnosis and therapeutic treatments. Dopamine neurons produce dopamine, release the neurotransmitter and remove the released dopamine with a dopamine transporter protein. Compounds that bind to the dopamine transporter are effective measures of dopamine neurons and can be transformed into imaging agents for PET and for SPECT imaging (see, e.g., Example 70, infra, for use of PET imaging). In identifying a suitable compound for the dopamine transporter, an essential first step is to measure the affinity and selectivity of a candidate at the dopamine transporter. The affinity can be measured by conducting radioreceptor assays. A radiolabeled marker for the transporter, e.g., (^3H)WIN 35,428, is incubated with the unlabeled candidate and a source of the transporter, usually brain striatum. The effect of various concentrations of the candidate on inhibiting (^3H)WIN 35,428 binding is quantified. The concentration of the compound that inhibits 50% of (^3H)WIN 35,428 bound to the transporter (IC50 value) is used as a measure of its affinity for the transporter. A suitable range of concentrations of the candidate typically is about 1 nM up to about 100 nM, more preferably 1 to 10 nM.
(§1) ^3H-WIN 35,428 (^3H-CFT, 2β-carbomethoxy-3β-(4-fluorophenyl)-N-^3H-methyltropane, 79.4-87.0 Ci/mmol) and ^3H-citalopram (86.8 Ci/mmol) is purchased from DuPont-New England Nuclear (Boston, Mass.). HPLC analyses are carried out on a Waters 510 system with detection at 254 nm on a Chiralcel OC column (flow rate: 1 mL/min).

dopamine transporter = biological target: T1, dopamine transporter (Macaca mulatta, UniProt Q7JHP9); assay: Dopamine transporter occupancy by PET imaging with [11C]CFT; assay type: in vivo, Rhesus monkeys; details: for [11C]CFT with Compound (binding potential) / % Occupancy / % Occupancy, cerebellum levels considered background: rhesus monkey; for [11C]CFT with Compound (binding potential): compound intravenously, PET one hour after administration; for % Occupancy / % Occupancy, cerebellum levels considered background: i.v., one hour; for % Occupancy: from reduced [11C]CFT binding potential vs baseline; for Brain entry and occupancy of DAT sites (in words): living brain, PET imaging, cerebellum as the negative control; for % Occupancy, cerebellum levels considered background: reduced to levels of cerebellum = full occupancy
T1 construct: occupy the dopamine transporter in living brain; from tissue; host or cells: living brain of rhesus monkeys (in vivo PET)
T1 sequence (Q7JHP9 1-620): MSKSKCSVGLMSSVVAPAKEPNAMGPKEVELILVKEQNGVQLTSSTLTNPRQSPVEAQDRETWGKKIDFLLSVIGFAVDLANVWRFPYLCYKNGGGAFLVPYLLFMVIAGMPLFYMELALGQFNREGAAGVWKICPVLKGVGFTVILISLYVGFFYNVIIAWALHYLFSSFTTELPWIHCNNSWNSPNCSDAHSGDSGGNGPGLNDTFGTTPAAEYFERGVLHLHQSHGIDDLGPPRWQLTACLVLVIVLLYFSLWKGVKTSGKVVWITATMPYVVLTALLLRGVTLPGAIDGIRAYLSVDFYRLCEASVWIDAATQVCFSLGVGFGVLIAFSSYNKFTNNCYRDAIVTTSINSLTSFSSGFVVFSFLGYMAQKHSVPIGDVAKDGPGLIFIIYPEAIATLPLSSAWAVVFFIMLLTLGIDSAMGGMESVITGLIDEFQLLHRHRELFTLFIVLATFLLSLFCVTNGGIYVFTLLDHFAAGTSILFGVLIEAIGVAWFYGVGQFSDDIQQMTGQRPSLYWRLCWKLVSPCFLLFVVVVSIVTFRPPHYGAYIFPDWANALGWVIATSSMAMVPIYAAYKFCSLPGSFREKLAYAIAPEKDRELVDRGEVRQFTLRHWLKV
Description: As the compounds of the invention are high affinity ligands for the dopamine transporter, we determined whether they occupy the dopamine transporter in living brain within 1 hour of administration. To monitor occupancy of the dopamine transporter, PET imaging was conducted with the high affinity dopamine transporter probe [11C]CFT ([11C]WIN 35,428). Rhesus monkeys were anesthetized with ketamine and xylazine and an indwelling intravenous catheter was placed in a leg vein. DAT density (binding potential) was acquired with [11C]CFT to obtain baseline levels. Immediately following completion of the imaging session, monkeys were administered the test compound intravenously via the indwelling catheter and PET imaging was conducted one hour after administration. Imaging data from the pre- and post-drug session were compared and occupancy was calculated on the basis of reduced [11C]CFT binding potential one hour or longer after administration of the compound. The following table (Table 1) summarizes pilot data from this study.

[2] = biological target: serotonin transporter (SERT) (Homo sapiens, UniProt P31645); assay: Radioreceptor assay, inhibition of (3H)citalopram binding to the serotonin transporter
Chain of serotonin transporter (SERT) (P31645 whole entry, species assumed): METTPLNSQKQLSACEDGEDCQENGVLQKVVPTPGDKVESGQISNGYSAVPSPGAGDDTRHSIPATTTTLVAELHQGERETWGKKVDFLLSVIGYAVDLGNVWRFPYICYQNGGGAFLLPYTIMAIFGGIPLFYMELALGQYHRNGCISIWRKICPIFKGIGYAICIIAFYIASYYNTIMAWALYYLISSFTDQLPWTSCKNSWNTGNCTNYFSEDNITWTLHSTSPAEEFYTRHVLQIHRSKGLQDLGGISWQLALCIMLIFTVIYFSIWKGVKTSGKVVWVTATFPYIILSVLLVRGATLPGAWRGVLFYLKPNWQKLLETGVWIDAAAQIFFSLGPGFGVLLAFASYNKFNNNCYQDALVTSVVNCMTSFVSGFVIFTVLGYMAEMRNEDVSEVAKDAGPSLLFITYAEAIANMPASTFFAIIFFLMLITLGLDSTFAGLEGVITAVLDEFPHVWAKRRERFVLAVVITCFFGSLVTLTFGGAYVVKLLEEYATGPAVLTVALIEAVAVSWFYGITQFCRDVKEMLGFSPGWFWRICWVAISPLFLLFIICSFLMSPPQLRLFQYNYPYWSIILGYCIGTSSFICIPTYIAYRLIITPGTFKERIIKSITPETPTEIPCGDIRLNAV
Description: The serotonin transporter is also detectable in the striatum, the brain region with the highest density of dopamine neurons and in brain regions surrounding the striatum. […] Therefore, a measure of probe affinity of the serotonin transport is conducted by assays paralleling the dopamine transporter assays.
as §1

Chain of dopamine transporter (DAT) (Q01959 whole entry, species assumed): as the sequence (Q7JHP9 1-620) above, with M24V, V137I, S194P, G198S, N200D, G201S, P202S counted along it

Row | Compound | melting point | other results
1 | CCCC(C(=O)c1ccc(I)cc1)N1CCCC1 (centres unmarked) (as salt: salt) | 218 °C (dec.) | 
2 | CCCC(C(=O)c1ccc(Cl)c(Cl)c1)N1CCCC1 (centres unmarked) [Compound O-2390, 2-Pyrrolidin-1-yl-1-(3,4-Dichloro-phenyl)-pentan-1-one] |  | IC50 [1]: 8 nM; [11C]CFT with Compound (binding potential) (dopamine transporter): 0.5898; % Occupancy (dopamine transporter): 56%
3 | CCC(CC(=O)c1ccc(C)cc1)N1CCCC1 (centres unmarked) (as salt: salt) | 97 °C (dec.) | 
4 | CCCC(C(=O)c1ccc(Cl)c(Cl)c1)N1CCCCC1 (centres unmarked) (as salt: salt) | 202 °C (dec.) | 
5 | CCCC(C(=O)c1cccc(C)c1)N1CCCC1 (centres unmarked) (as salt: salt) | 166 °C (dec.) | 
6 | CCCC(C(=O)c1ccc([N+](=O)[O-])cc1)N1CCCC1 (centres unmarked) (as salt: salt) | 189 °C (dec.) | 
7 | CCCC(C(=O)c1ccc(C)cc1)N1CCCC1 (racemic) (as salt: salt) [Compound O-2371, 2-Pyrrolidin-1-yl-1-p-tolyl-pentan-1-one] | 180 °C (dec.) | 
8 | CC#Cc1ccc(C(=O)C(CCC)N2CCCC2)cc1 (centres unmarked) (as salt: salt) | 231 °C (dec.) | 
9 | CCC(CC(=O)c1ccc(Cl)c(Cl)c1)N1CCCC1 (centres unmarked) (as salt: salt) | 104 to 107 °C (dec.) | 
10 | CCC[C@@H](C(=O)c1ccc(C)cc1)N1CCCC1 [Compound O-2442, (2S)-2-Pyrrolidin-1-yl-1-p-tolyl-pentan-1-one] |  | IC50 [2]: > 4000 nM; IC50 [1]: 3 nM; DAT inhibition potency, comparison of enantiomers ([1]; 2S versus 2R enantiomer): more potent DAT inhibitor than the 2R-enantiomer; Brain entry and occupancy of DAT sites (in words) (dopamine transporter): most efficient in entering the brain and occupying the majority of DAT sites; [11C]CFT with Compound (binding potential) (dopamine transporter): 0.6112; % Occupancy (dopamine transporter): 70%; % Occupancy, cerebellum levels considered background (dopamine transporter): 100* %
11 | C#CCC(C(=O)c1ccc(C)cc1)N1CCCC1 (centres unmarked) (as salt: salt) | 178 °C (dec.) | 
12 | CCCC(C(=O)c1ccc2ccccc2c1)N1CCCC1 (centres unmarked) (as salt: salt) | 221 to 223 °C (dec.) | 
13 | C=CCC(C(=O)c1ccc(C)cc1)N1CCCC1 (centres unmarked) (as salt: salt) | 196 °C (dec.) | 
14 | CCCC(C(=O)c1ccc(-c2cccs2)cc1)N1CCCC1 (centres unmarked) (as salt: salt) | 220 °C (dec.) | 
15 | CCCC(C(=O)c1ccc(Cl)c(Cl)c1)N1CCCC1 (centres unmarked) (as salt: salt) [Compound O-2390, 2-Pyrrolidin-1-yl-1-(3,4-Dichloro-phenyl)-pentan-1-one] | 195 °C (dec.) | 
16 | CCCC(C(=O)c1ccc(C#N)cc1)N1CCCC1 (centres unmarked) (as salt: salt) | 197 to 199 °C (dec.) | 

Row | Compound | melting point | other results
17 | CCCC(C(=O)c1ccc(OC)c(OC)c1)N1CCCC1 (centres unmarked) (as salt: salt) | 177 °C (dec.) | 
18 | CCCC(C(=O)c1ccc(NC(C)=O)cc1)N1CCCC1 (centres unmarked) (as salt: salt) | 195 °C (dec.) | 
19 | CCCC(C(=O)c1ccc(C(=O)OC)cc1)N1CCCC1 (centres unmarked) (as salt: salt) | 202 °C (dec.) | 
20 | CCCC(N1CCCC1)C(O)(Cc1ccccc1)c1ccc(C)cc1 (centres unmarked) (as salt: salt) | 211 °C (dec.) | 
21 | CCCC(C(=O)c1ccc(Br)cc1)N1CCCC1 (centres unmarked) [Compound O-2419, 2-Pyrrolidin-1-yl-1-(4′-bromo-phenyl)-pentan-1-one] |  | IC50 [1]: 8 nM; [11C]CFT with Compound (binding potential) (dopamine transporter): 1.6025; % Occupancy (dopamine transporter): 33%
22 | CCCC(C(=O)c1ccc(O)c(O)c1)N1CCCC1 (centres unmarked) (as salt: salt) | 181 to 182 °C | 
23 | CCCC(C(=O)c1cccc(I)c1)N1CCCC1 (centres unmarked) (as salt: salt) | 203 °C (dec.) | 
24 | CCCC(C(=O)c1ccc(C)cc1)N1CCCC1 (racemic) [Compound O-2371, 2-Pyrrolidin-1-yl-1-p-tolyl-pentan-1-one] |  | IC50 [1]: 8 nM; Brain entry and occupancy of DAT sites (in words) (dopamine transporter): most efficient in entering the brain and occupying the majority of DAT sites; [11C]CFT with Compound (binding potential) (dopamine transporter): 0.4551; % Occupancy (dopamine transporter): 74%; % Occupancy, cerebellum levels considered background (dopamine transporter): 100* %
25 | CCCC(C(=O)c1ccc(C(F)(F)F)cc1)N1CCCC1 (centres unmarked) (as salt: salt) | 228 °C (dec.) | 
26 | CCCC(C(=O)c1ccc(F)cc1)N1CCCC1 (centres unmarked) (as salt: salt) | 218 °C (dec.) | 
27 | Cc1ccc(C(=O)C(CC(C)C)N2CCCC2)cc1 (centres unmarked) (as salt: salt) | 218 °C (dec.) | 
28 | CCCC(C(=O)c1ccccc1)N1CCCC1 (centres unmarked) [Compound O-2387, 2-Pyrrolidin-1-yl-phenyl-pentan-1-one] |  | IC50 ([1]; affinity column of the PET occupancy table, read-out: DAT Affinity): 13 nM; [11C]CFT with Compound (binding potential) (dopamine transporter): 0.7885; % Occupancy (dopamine transporter): 64%
29 | CCCC(C(=O)c1ccc(CO)cc1)N1CCCC1 (centres unmarked) (as salt: salt) | 186 to 187 °C (dec.) | 
30 | CCCC(C(=O)c1ccc(Br)cc1)N1CCCC1 (centres unmarked) (as salt: salt) [Compound O-2419, 2-Pyrrolidin-1-yl-1-(4′-bromo-phenyl)-pentan-1-one] | 200 °C (dec.) | 
31 | CCC(C(=O)c1ccc(Cl)c(Cl)c1)N1CCCC1 (centres unmarked) (as salt: salt) | 211 °C (dec.) | 
